“Also recorded” adds a separate entry of the source.

Data set [1] is described as follows: adsorption of biocides onto CuO and ZnO nanoparticles in o-xylene, non-adsorbed biocide by HPLC-UV. It counts as physicochemical. To be noted: biocide 50 mM. As to the method: To 50 ml of the solvent o-xylene, the biocide was added at a total concentration of 50 mM. Nano-particles (Sigma-Aldrich Sweden AB, Stockholm, Sweden) were then added in relevant concentrations according to the test protocol and after each addition the concentration of non-adsorbed Medetomidine (Orion Pharma, Helsinki, Finland) was measured with a standard HPLC-UV technique. The UV-absorbance maximum of Medetomidine was, from the literature, found to be 220 nm. Prior to the HPLC analysis the UV-absorbance maximum was investigated in order to verify the value given from the literature using a UV-spectrometer (GBC 920 UV/visible spectrometer, Scientific Equipments Ltd., Victoria, Australia).
The samples were analysed on a HPLC-UV system consisting of a Merck-Hitachi L-6200 pump (Merck-Hitachi, Darmstadt, Germany), a Supelco Discovery® (Sigma-Aldrich Sweden AB, Stockholm, Sweden) C18 (25 cm×4.6 mm, 5 m) column fitted with a prefilter (0.5 μm) and a Spectra-Physics Spectra 100 UV (Spectra-Physics Inc, Irvine Calif., USA) operating at 220 nm. The mobile phase was MilliQ-water:Acetonitrile (0.1% TFA v/v (mobile phase A): 0.1% TFA v/v (mobile phase B)) run over a gradient (6% B for two min then an increase up to 60% B in 15 min, a further increase up to 100% B in 3 min and then isocratic for 3 min before returning to the starting values in 2 min) at a flow rate of […]. The peak separation was monitored by UV (220 nm). Manual injections of 100 micro-liter were made and the data was collected and integrated using the Millenium software (version 3.20, 1999)(Waters Inc, Milford Mass., USA).

Data set [2] concerns barnacles. To be noted: reported pharmacological compounds; cited from earlier work.
For data set [3] the following is noted: CuO (5 μm) instead of nanoparticle, o-xylene. As to the method:
The different nanoparticles used (ZnO, CuO, Al2O3, MgO, TiO2, CO3O4) were bought from Sigma (Sigma-Aldrich Sweden AB, Stockholm, Sweden) and used without further purification. 50 ml of o-xylene was added to a beaker to which 50 mM of Medetomidine (Orion Pharma, Helsinki, Finland) was added. Nanoparticles were then added and after each addition the amount of free Medetomidine was measured with HPLC-UV (as in example 1 above).

Turning to `CN(C)C(=O)Nc1ccc(Cl)c(Cl)c1` [diuron, 3-(3,4-dichlorophenyl)-1,1-dimethylurea], the “adsorption of antifouling agent onto nanoparticles” value in data set [1] is given as “exhibited adsorption”.

`CCCCCCCCn1sc(Cl)c(Cl)c1=O` [SeaNine, 4,5-dichloro-2-n-octyl-3(2H)-isothiazolone]: the “adsorption of antifouling agent onto nanoparticles” value in data set [1] is listed as “exhibited adsorption”.

Turning to `CCCN1CCc2cccc3c2[C@H]1Cc1ccc(O)c(O)c1-3` [R (−)-NPA], the “effect on attachment / settlement of barnacles” value in data set [2] was “inhibitory properties”.

As to `O=C(c1ccc(F)cc1)C1CCN(CCn2c(=O)[nH]c3ccccc3c2=O)CC1` [Ketanserin], the “effect on attachment / settlement of barnacles” value in data set [2] is “inhibitory properties”.

In the case of `Cc1cccc(C(C)c2cnc[nH]2)c1C` (racemic) [Medetomidine, (S,R)-4(5)-[1-(2,3-dimethylphenyl)ethyl]-1H-imidazole], the “Medetomidine adsorption onto micrometer sized particle” value in data set [3] is listed as “negligible”. In addition, the “effect on attachment / settlement of barnacles” value in data set [2] is given as “efficient inhibitor”. In data set [1], the “adsorption of antifouling agent onto nanoparticles” value is “Large fractions of Medetomidine are adsorbed already at low particle concentrations; also recorded: best adsorption”.

For `CSc1nc(NC2CC2)nc(NC(C)(C)C)n1` [igarol, 2-methylthio-4-tert-butylamino-6-cyclopropylamino-s-triziane], in data set [1], the “adsorption of antifouling agent onto nanoparticles” value is on record as “exhibited adsorption”.

Regarding `CC(C)C[C@H]1C(=O)N2CCC[C@H]2[C@]2(O)O[C@](NC(=O)[C@@H]3C=C4c5cccc6[nH]c(Br)c(c56)C[C@H]4N(C)C3)(C(C)C)C(=O)N12` [(+)-Bromocriptine], the “effect on attachment / settlement of barnacles” value in data set [2] is “inhibitory properties”.
